Experimental findings from patent publication US4379148A, “Analgesic and anti-inflammatory composition” (priority 1981, dated 1983) are described below.

Like-named read-outs stand apart in the source and are kept apart here.

The nature of series [1]: Analgesic Test by Phenylquinone Writhing Method. Type of series: in vivo, Male ddY mice. Particulars: for ED50: Mus musculus, po, read-out: ED50 (dose that reduced the number of writhes of the control group by 50%), drug alone; for combined analgesic effect with emorfazone: combination with emorfazone, in words; for ED50 dose obtained experimentally, with emorfazone 10 / theoretical additive ED50 dose, with emorfazone 10 / ED50 dose obtained experimentally, with emorfazone 20 / theoretical additive ED50 dose, with emorfazone 20: p.o.; for ED50 dose obtained experimentally, with emorfazone 10: combined with emorfazone 10 mg/kg (1/4 of its ED50); for theoretical additive ED50 dose, with emorfazone 10: combined with emorfazone 10 mg/kg; for ED50 dose obtained experimentally, with emorfazone 20: combined with emorfazone 20 mg/kg (1/2 of its ED50); for theoretical additive ED50 dose, with emorfazone 20: combined with emorfazone 20 mg/kg. On the procedure:
Male ddY mice (18-22 g) fasted for 18 hours were divided into test groups and a control group of 7 animals per group. […] The number of writhes was counted for 20 minutes after the p-phenylquinone injection.

Series [2] can be described thus: Analgesic Test by Randall-Selitto Method (carrageenin inflammatory pain). Particulars: for ED50: Rattus norvegicus, po, read-out: ED50 (dose that increased the mean pain threshold of the control group by 50%), drug alone; for ED50 dose obtained experimentally, with emorfazone 4.5 / theoretical additive ED50 dose, with emorfazone 4.5: combined with emorfazone 4.5 mg/kg. The format is in vivo, Male Wistar rats. On the procedure:
Male Wistar rats (120-140 g) fasted for 18 hours were divided into test groups and a control group of 5 animals per group. […] The pain threshold was measured after the carrageenin injection at hourly intervals for 3 hours with an analgesy meter (Ugo Basile, Milan).

Series [3] in a line: Anti-inflammatory Test by Whittle's Method (acetic acid, dye in peritoneal exudate). The format is in vivo, Male ddY mice. On the procedure: Male ddY mice (18-22 g) fasted for 18 hours were divided into test groups and a control group of 7 or 8 animals each. […] Ten minutes later, 10 ml/kg of 0.7% acetic acid dissolved in physiological saline was injected intraperitoneally into all animals and 20 minutes thereafter the animals were sacrificed. The amount of the dye in the peritoneal exudate was determined at 590 nm by using a spectrophotometer (Hitachi Instrument Co.). The ED30 was defined as the dose which decreased the amount of dye of the control group by 30%, and was determined graphically.

For series [4], the system named is biosynthesis of prostaglandin. Briefly: inhibition of the biosynthesis of prostaglandin. The format is biochemical. The settings on record: in words.
The conditions of series [5]: in words; for inhibitory effect in combination with emorfazone: combination with 100 mg/kg of emorfazone.
Method: Female Sprague-Dawley rats (180-220 g) were used. […] On day 0 of the test, the adjuvant containing 0.6 mg of Mycobacterium butylicum (Difco) in 0.1 ml of liquid paraffin was injected into the plantar surface of the right hind paw. The test drugs were administered orally once a day for 15 days. The severity of inflammation of the 4 paws and the tail of each rat was evaluated visually at day 30 and scored by a point system. The grading for each lesion was on a 0 to 3 scale with 0 indicating absence of inflammation and 3 indicating maximum inflammation.
The conditions of series [6]: p.o., combined with emorfazone 240 mg/kg.
A short description of series [7]: in vivo. Particulars: mouse, po.
Where [8] appears, read: Mus musculus, po; read-out: ED30 (dose which decreased the amount of dye of the control group by 30%), drug alone.
The mark [9] stands for this setting: p.o., combined with emorfazone 9 mg/kg.
[10] abbreviates: p.o.; combined with emorfazone 28.8 mg/kg.
Where [11] appears, read: p.o.; combined with emorfazone 28.8 mg/kg; theoretical additive dose.
Where [12] appears, read: p.o.; combined with emorfazone 86 mg/kg.
The mark [13] stands for this setting: p.o.; combined with emorfazone 86 mg/kg; theoretical additive dose.
Setting [14] is: LD50 dose obtained experimentally, with emorfazone 240, p.o., combined with emorfazone 240 mg/kg.

As for `CCOc1c(N2CCOCC2)cnn(C)c1=O` [Emorfazone, 4-ethoxy-2-methyl-5-morpholino-3(2H)-pyridazinone], the figures for the ED50 in series [1] and in series [2] were 40 mg/kg and 18 mg/kg, respectively. The ED30 in series [3] (setting [8]) turned out to be 115 mg/kg. The “inhibition of the biosynthesis of prostaglandin (emorfazone)” value in series [4] is listed as “does not inhibit the biosynthesis of prostaglandin”. In addition, in series [5] (100 mg/kg, used alone), the “inhibitory effect of emorfazone alone” value is “did not show any significant effect when used alone”.

Consider `CC(C(=O)O)c1ccc(-c2ccccc2)c(F)c1` (centres unmarked) [Flurbiprofen], for which, in series [1], the ED50 worked out at 2 mg/kg; the “combined analgesic effect with emorfazone” value is “for the most part a synergistic response”; the “ED50 dose obtained experimentally, with emorfazone 10” value stood at 6.2 mg/kg; the “theoretical additive ED50 dose, with emorfazone 10” value came to 8 mg/kg. Further, in series [1], the “ED50 dose obtained experimentally, with emorfazone 20” value stood at 0.8 mg/kg and the “theoretical additive ED50 dose, with emorfazone 20” value worked out at 1 mg/kg. The ED50 in series [2] came out at 22 mg/kg. For the same compound, in series [2] (p.o.), the “ED50 dose obtained experimentally, with emorfazone 4.5” value was 15 mg/kg and the “theoretical additive ED50 dose, with emorfazone 4.5” value was 16.5 mg/kg. In addition, the “theoretical additive ED50 dose, with emorfazone 9” value in series [2] (setting [9]) turned out to be 11 mg/kg. Moreover, in series [3] (Mus musculus, po, read-out: ED30 (dose which decreased the amount of dye of the control group by 30%), drug alone), the ED30 was 4 mg/kg. In series [3] (setting [10]), the “ED30 dose obtained experimentally, with emorfazone 28.8” value came to 2.8 mg/kg. In addition, the “theoretical additive ED30 dose, with emorfazone 28.8” value in series [3] (setting [11]) is 3.0 mg/kg. For the same compound, the “ED30 dose obtained experimentally, with emorfazone 86” value in series [3] (setting [12]) came out at 1.9 mg/kg. Besides, the “theoretical additive ED30 dose, with emorfazone 86” value in series [3] (setting [13]) was 2 mg/kg. Further, the “theoretical additive LD50 dose, with emorfazone 240” value in series [6] is given as 157.5 mg/kg. The compound also had a 50% lethal dose (LD50) at 168 h in series [7] of 210 mg/kg. Moreover, in series [7] (setting [14]), the LD50 at 168 h came out at 155 mg/kg. Also, the “inhibitory effect in combination with emorfazone” value in series [5] is given as “significantly potentiated”.

Take `COc1ccc2c(c1)c(CC(=O)O)c(C)n2C(=O)c1ccc(Cl)cc1` [Indomethacin]: in series [1], the ED50 worked out at 0.52 mg/kg; the “combined analgesic effect with emorfazone” value is listed as “for the most part a synergistic response”; the “ED50 dose obtained experimentally, with emorfazone 10” value amounted to 0.33 mg/kg; the “theoretical additive ED50 dose, with emorfazone 10” value was 0.39 mg/kg. In series [1], the “ED50 dose obtained experimentally, with emorfazone 20” value is 0.18 mg/kg and the “theoretical additive ED50 dose, with emorfazone 20” value came to 0.26 mg/kg. In addition, the ED50 in series [2] turned out to be 6.8 mg/kg. For the same compound, in series [2] (p.o.), the “ED50 dose obtained experimentally, with emorfazone 4.5” value is 0.8 mg/kg and the “theoretical additive ED50 dose, with emorfazone 4.5” value was 5.1 mg/kg. In series [2] (setting [9]), the “ED50 dose obtained experimentally, with emorfazone 9” value is recorded as 0.3 mg/kg and the “theoretical additive ED50 dose, with emorfazone 9” value turned out to be 3.4 mg/kg. In addition, the ED30 in series [3] (setting [8]) was 2.2 mg/kg. In addition, in series [3] (setting [10]), the “ED30 dose obtained experimentally, with emorfazone 28.8” value is recorded as 1.6 mg/kg. In addition, in series [3] (setting [11]), the “theoretical additive ED30 dose, with emorfazone 28.8” value is given as 1.65 mg/kg. Also, in series [3] (setting [12]), the “ED30 dose obtained experimentally, with emorfazone 86” value is 1 mg/kg. The “theoretical additive ED30 dose, with emorfazone 86” value in series [3] (setting [13]) stood at 1.1 mg/kg. Moreover, in series [6], the “theoretical additive LD50 dose, with emorfazone 240” value was determined as 8.5 mg/kg. The LD50 at 168 h in series [7] is 11.3 mg/kg. Further, the LD50 at 168 h in series [7] (setting [14]) came out at 13 mg/kg. Further, the “inhibitory effect in combination with emorfazone” value in series [5] is on record as “significantly potentiated”.
